Reference: PMC2898634 (Chemical Communications (Cambridge, England), 2009)

Legend:
[1] = tested on: IP3R; conditions: cited from earlier work
[2] = molecular target: IP3R1 with R504 mutated to glutamine (Rattus norvegicus, UniProt P29994, R504Q); experiment: Ca2+ release in cell line expressing only IP3R1 with R504 mutated to glutamine; type: cell-based
Chain of IP3R1 with R504 mutated to glutamine (P29994 whole entry R504Q): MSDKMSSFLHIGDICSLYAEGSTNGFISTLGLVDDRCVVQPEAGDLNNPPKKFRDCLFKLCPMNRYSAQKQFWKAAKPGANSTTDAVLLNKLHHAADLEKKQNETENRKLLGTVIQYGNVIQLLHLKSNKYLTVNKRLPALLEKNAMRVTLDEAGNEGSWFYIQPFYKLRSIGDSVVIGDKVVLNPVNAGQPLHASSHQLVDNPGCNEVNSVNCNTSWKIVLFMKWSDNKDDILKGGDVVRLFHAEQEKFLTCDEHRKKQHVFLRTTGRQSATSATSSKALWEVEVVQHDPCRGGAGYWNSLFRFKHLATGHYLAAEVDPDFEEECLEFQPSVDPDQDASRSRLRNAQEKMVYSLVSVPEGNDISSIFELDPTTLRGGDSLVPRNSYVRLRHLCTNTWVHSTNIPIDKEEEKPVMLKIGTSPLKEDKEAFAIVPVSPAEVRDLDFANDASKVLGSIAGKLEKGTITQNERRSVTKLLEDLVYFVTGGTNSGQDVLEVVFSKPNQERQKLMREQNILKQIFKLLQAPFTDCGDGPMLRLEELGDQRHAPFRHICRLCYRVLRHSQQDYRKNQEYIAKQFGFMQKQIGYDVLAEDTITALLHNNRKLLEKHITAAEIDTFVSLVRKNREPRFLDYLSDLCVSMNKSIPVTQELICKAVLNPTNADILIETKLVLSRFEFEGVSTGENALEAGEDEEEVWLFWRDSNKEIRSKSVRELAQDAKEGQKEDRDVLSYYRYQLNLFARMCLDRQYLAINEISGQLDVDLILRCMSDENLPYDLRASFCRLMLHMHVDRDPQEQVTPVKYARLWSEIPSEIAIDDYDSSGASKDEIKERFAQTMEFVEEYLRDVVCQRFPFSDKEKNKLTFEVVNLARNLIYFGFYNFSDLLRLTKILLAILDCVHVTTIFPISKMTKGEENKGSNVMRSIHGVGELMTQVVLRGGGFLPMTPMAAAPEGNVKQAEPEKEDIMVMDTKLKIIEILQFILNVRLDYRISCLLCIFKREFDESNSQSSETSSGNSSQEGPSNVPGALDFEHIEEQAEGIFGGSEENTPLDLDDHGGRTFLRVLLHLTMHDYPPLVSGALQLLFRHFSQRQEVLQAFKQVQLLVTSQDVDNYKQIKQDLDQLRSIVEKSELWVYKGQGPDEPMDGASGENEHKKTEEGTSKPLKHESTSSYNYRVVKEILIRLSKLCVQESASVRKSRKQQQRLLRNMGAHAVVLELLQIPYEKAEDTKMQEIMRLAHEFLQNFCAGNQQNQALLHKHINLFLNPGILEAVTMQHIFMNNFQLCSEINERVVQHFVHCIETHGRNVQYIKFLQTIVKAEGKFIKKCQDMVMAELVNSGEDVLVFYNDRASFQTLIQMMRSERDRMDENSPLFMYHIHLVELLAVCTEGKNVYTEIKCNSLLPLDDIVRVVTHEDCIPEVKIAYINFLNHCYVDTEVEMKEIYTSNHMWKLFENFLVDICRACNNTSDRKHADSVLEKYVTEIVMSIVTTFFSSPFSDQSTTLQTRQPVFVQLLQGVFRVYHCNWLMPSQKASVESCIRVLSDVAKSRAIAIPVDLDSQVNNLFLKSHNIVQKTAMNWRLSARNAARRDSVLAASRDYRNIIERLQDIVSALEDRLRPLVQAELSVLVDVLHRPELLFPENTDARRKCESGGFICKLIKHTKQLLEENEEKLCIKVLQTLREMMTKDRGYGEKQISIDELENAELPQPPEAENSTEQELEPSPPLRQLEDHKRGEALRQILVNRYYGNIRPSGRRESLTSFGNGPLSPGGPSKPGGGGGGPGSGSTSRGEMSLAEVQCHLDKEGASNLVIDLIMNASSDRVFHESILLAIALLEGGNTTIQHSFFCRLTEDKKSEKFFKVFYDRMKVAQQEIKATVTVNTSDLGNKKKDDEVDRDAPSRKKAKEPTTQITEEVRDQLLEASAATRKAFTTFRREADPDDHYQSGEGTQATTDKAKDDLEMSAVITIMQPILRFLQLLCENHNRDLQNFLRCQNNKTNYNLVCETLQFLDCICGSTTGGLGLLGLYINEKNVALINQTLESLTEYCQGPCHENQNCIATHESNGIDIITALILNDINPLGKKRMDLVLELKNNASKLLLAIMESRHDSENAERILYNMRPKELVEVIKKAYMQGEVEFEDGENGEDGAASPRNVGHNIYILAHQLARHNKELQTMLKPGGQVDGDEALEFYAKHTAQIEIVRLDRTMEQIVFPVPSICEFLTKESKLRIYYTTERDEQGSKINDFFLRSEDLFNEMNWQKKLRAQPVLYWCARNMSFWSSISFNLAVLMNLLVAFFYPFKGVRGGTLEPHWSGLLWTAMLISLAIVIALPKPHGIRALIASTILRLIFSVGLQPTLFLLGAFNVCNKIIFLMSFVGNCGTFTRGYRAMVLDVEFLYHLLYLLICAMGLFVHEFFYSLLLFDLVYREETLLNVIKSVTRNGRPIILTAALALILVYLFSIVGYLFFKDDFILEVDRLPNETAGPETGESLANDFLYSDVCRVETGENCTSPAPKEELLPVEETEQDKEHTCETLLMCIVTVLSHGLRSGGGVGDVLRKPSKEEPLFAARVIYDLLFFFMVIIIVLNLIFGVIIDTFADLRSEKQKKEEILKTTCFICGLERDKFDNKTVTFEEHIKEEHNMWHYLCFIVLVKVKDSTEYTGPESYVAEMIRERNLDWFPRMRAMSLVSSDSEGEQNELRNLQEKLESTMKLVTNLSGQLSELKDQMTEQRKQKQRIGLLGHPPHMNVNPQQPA

SMILES	activity at IP3R (result in words) [1]	potency relative to IP3 at the mutated receptor [2]	change of EC50 at mutant IP3R relative to IP3R1 ([2]; printed as EC50 reduced) [fold]	potency relative to IP3 [1]
O=P(O)(O)O[C@@H]1[C@@H](O)[C@H](OP(=O)(O)O)[C@H](O)[C@H](O)[C@H]1O [Ins(1,5)P2]	inactive			
Nc1ncnc2c1ncn2[C@@H]1O[C@H](CO)[C@@H](O[C@H]2O[C@H](CO)[C@@H](OP(=O)(O)O)[C@H](OP(=O)(O)O)[C@H]2O)[C@H]1OP(=O)(O)O [AdA, adenophostin A]		only equipotent with IP3	434	at least ten times more potent than IP3
